Where two headings read alike, the source gives them in different places.
How the values were obtained:
PKN3 = PKN3 (Homo sapiens, UniProt Q6P5Z2); experiment: NanoBRET in-cell target engagement in HEK293T cells: PKN3; type: cell-based; set-up: full-length PKN3, CSNK2A1 or CSNK2A2 ORF; host or cells: HEK293T;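 note: Full-length PKN3 with C-terminal NanoLuc expressed in HEK293T cells, serial inhibitor dilutions competing against Kinase Tracer K5 at 500 nM, BRET read after 2 h at 37 °C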
ACOX1 = biological target: T1, ACOX1 (Homo sapiens, UniProt Q15067); experiment: Kinobeads two-dose competition binding: ACOX1; details: sheet CATDS matrix 2; Gene Name ACOX1;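 note: competition of compounds with immobilized broad-spectrum kinase inhibitor beads in cell lysate at 100 and 1,000 nM, 45 min at 4 °C, bead-bound protein quantified by label-free MS versus DMSO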
T1 construct: endogenous in cells
T1 sequence (Q15067 1-660): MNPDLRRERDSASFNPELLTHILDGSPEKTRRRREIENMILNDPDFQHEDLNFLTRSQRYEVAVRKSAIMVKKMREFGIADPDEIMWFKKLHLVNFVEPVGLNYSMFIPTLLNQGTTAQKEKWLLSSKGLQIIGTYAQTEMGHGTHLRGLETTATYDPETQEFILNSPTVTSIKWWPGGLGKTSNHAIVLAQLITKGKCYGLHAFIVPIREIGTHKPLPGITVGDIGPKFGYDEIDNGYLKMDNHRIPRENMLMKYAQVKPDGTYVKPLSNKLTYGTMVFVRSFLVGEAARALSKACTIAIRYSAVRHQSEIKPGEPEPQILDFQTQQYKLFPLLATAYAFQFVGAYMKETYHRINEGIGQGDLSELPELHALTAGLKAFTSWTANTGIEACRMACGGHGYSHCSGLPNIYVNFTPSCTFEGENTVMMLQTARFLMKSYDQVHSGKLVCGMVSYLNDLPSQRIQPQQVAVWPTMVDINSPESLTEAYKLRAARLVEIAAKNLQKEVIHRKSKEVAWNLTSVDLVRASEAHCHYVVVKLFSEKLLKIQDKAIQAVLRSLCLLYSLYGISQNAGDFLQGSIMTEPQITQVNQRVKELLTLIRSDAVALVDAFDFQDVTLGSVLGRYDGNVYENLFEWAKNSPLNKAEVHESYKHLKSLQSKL

ACAD11 = biological target: T2, ACAD11 (Homo sapiens, UniProt Q709F0); experiment: Kinobeads two-dose competition binding: ACAD11; details: sheet CATDS matrix 2; Gene Name ACAD11
T2 construct: endogenous in cells
T2 sequence (Q709F0 1-780): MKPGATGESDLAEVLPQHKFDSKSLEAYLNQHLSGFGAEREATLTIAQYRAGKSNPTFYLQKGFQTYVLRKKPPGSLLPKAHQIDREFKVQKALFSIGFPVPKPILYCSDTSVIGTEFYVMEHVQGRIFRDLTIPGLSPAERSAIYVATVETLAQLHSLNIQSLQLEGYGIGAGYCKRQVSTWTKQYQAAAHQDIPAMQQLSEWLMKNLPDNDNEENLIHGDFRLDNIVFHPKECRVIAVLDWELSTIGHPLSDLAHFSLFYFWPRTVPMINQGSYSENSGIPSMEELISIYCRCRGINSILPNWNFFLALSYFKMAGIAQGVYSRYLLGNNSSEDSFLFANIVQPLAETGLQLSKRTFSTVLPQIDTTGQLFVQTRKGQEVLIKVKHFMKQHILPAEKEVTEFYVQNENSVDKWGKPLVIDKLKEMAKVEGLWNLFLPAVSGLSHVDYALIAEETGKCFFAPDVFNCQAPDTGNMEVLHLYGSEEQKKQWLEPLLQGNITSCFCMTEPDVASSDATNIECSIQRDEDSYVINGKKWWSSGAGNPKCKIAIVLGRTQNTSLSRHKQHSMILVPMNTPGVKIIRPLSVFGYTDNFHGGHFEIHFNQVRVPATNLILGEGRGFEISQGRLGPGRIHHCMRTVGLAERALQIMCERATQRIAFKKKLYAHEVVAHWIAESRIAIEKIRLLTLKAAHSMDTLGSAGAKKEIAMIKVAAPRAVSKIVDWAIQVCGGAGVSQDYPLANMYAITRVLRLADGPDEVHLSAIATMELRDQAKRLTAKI

AAK1 = biological target: T3, AAK1 (Homo sapiens, UniProt Q2M2I8); experiment: Kinobeads two-dose competition binding: AAK1; details: for CATDS: sheet CATDS matrix 2, Gene Name AAK1; for potency estimated from few doses: sheet "Kinobeads Drugmatrix - all", unit inferred, same values below 1000 recur in sheet "nanomolar", read-out: Kinobeads Drugmatrix - all: apparent Kd, AAK1;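 for all read-outs here: kinobeads competition pulldown from cell lysate, compound preincubated 45 min at 4 °C, bead-bound protein measured by label-free mass spectrometry against DMSO vehicle control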
T3 construct: to maximize the representation of endogenous proteins; endogenous in cells
T3 sequence (Q2M2I8 whole entry): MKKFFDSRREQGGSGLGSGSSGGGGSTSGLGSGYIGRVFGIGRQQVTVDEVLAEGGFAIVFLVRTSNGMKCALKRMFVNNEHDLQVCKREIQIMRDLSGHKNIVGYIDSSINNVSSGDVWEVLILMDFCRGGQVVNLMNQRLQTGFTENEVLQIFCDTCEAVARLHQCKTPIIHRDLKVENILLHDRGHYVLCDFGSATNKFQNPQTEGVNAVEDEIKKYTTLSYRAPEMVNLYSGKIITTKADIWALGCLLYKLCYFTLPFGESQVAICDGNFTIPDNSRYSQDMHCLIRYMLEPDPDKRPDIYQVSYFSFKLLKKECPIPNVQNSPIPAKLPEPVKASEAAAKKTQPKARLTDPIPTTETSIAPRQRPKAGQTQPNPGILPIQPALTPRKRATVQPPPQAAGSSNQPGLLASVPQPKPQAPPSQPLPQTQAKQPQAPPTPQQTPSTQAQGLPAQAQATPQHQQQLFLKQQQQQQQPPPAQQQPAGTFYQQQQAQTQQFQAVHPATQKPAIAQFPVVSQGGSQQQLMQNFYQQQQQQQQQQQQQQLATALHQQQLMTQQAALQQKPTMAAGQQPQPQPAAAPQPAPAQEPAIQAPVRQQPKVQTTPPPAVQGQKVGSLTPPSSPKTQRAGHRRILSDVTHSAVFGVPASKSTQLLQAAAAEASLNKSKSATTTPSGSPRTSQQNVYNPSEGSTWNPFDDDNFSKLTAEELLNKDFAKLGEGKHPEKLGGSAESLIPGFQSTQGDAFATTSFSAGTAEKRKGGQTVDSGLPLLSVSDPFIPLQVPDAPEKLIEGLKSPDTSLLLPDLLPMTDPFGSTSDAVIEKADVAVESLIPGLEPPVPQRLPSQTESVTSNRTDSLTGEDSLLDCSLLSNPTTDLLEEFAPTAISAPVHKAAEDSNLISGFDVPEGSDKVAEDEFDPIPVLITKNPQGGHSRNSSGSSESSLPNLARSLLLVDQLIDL

ABL1 = ABL1 (Homo sapiens, UniProt P00519); experiment: Kinobeads two-dose competition binding: ABL1; details: sheet CATDS matrix 2; Gene Name ABL1
Sequence of ABL1 (P00519 28-1130 limits assumed): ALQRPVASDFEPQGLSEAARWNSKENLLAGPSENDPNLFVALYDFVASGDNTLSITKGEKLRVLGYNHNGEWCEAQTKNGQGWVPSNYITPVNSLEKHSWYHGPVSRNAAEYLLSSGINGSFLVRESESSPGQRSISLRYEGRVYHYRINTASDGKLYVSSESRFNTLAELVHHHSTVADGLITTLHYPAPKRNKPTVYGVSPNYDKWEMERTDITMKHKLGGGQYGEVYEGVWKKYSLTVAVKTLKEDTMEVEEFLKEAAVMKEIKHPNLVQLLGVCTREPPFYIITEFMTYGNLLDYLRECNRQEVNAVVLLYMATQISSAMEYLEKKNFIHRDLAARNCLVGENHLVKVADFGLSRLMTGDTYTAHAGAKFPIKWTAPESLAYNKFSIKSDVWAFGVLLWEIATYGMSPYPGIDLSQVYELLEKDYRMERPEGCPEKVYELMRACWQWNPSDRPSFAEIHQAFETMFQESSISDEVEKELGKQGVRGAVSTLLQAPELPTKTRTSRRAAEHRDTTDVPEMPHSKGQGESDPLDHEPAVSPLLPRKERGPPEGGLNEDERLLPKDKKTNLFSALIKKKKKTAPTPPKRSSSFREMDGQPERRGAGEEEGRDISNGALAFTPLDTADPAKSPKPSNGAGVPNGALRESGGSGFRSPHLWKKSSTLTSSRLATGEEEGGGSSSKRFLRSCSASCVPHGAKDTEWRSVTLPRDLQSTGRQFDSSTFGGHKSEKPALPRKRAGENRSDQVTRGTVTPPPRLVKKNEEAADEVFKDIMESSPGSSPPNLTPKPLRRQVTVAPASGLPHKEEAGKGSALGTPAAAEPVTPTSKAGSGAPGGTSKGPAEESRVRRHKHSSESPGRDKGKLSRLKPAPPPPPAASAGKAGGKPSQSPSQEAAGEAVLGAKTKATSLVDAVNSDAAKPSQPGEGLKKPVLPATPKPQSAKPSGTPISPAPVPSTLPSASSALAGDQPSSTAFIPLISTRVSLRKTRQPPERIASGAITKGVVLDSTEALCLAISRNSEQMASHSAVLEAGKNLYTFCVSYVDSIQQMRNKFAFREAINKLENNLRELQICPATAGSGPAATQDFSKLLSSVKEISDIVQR

ABL2 = biological target: T4, ABL2 (Homo sapiens, UniProt P42684); experiment: Kinobeads two-dose competition binding: ABL2; details: sheet CATDS matrix 2; Gene Name ABL2
T4 construct: endogenous in cells
T4 sequence (P42684 whole entry): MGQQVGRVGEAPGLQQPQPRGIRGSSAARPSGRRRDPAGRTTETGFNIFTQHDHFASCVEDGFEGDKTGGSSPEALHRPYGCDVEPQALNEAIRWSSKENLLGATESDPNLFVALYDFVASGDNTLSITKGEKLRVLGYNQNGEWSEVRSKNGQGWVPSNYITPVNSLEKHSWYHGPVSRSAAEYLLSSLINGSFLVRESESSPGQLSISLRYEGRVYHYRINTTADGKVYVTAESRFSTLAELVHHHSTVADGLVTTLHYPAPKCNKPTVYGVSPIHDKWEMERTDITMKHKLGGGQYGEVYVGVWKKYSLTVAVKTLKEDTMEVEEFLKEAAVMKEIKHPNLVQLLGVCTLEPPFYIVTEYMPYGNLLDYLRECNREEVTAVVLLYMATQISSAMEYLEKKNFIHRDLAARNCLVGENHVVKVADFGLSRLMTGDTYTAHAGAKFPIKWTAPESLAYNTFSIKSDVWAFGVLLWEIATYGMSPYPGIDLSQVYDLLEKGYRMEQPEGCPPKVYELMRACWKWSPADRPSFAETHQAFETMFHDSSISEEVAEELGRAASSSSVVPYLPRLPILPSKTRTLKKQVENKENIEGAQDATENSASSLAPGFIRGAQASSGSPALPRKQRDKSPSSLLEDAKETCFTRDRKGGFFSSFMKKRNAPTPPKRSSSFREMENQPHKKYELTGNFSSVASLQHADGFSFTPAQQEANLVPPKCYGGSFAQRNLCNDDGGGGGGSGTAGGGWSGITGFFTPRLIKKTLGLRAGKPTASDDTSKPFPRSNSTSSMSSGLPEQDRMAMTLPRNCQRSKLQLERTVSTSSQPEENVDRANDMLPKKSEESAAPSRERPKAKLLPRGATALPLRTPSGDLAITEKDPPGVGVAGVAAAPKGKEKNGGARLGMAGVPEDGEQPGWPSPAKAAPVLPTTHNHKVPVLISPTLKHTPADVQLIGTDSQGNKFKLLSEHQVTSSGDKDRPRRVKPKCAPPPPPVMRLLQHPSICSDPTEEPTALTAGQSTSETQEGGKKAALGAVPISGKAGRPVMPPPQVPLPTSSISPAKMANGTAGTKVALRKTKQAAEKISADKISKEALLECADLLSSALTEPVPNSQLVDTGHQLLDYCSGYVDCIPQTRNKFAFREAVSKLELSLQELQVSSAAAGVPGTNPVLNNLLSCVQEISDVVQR

[1] = average of replicates, read-out: Average of IC50 values NanoBRET PKN3
[2] = biological replicate number 2, read-out: Rep 2 IC50 NanoBRET PKN3
[3] = biological replicate number 4, read-out: Rep 4 IC50 NanoBRET PKN3
[4] = biological replicate number 1, read-out: Rep 1 IC50 NanoBRET PKN3
[5] = biological replicate number 3, read-out: Rep 3 IC50 NanoBRET PKN3
[6] = HEK293T cells, in-cell target engagement, read-out: IC50 PKN3 NanoBRET

Sequence of PKN3 (Q6P5Z2 whole entry): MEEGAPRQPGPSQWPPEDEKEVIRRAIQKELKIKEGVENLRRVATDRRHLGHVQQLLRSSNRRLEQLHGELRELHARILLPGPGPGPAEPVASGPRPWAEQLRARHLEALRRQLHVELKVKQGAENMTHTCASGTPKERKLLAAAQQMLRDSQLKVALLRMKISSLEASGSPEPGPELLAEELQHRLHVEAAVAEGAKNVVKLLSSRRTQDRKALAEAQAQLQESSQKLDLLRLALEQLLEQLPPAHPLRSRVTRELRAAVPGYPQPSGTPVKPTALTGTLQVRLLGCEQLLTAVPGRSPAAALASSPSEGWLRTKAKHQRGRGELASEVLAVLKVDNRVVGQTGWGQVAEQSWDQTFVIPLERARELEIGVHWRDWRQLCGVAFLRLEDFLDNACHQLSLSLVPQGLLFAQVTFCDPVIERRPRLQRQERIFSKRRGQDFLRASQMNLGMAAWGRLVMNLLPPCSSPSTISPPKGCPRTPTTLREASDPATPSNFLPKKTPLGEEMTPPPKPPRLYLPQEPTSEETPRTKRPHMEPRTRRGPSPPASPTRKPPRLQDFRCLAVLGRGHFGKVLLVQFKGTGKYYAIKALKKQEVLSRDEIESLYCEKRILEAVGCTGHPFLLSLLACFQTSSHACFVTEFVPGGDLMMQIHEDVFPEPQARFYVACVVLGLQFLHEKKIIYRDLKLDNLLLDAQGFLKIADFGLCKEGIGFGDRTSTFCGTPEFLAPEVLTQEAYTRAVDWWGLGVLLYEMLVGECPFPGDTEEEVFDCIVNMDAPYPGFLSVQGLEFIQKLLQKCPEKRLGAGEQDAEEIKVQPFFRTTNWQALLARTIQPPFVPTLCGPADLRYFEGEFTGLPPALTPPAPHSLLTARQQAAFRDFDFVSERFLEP

Row | Compound | IC50 (PKN3; [1]) [µM] | IC50 (PKN3; [2]) [µM] | IC50 (PKN3; [3]) [µM] | IC50 (PKN3; [4]) [µM] | IC50 (PKN3; [5]) [µM] | IC50 (PKN3; [6]) [µM] | CATDS (ACOX1) | CATDS (ACAD11) | CATDS (AAK1) | CATDS (ABL1) | CATDS (ABL2) | potency estimated from few doses (AAK1) [µM]
1 | Cc1cc(Nc2ncc(Cl)c(Nc3ccccc3S(=O)(=O)C(C)C)n2)c(OC(C)C)cc1C1CCNCC1 [Ceritinib, reference compound] |  |  |  |  |  |  | 0 | 0 | 0 | 0 | 0 | 
2 | COc1cc2ncn(-c3cc(OCc4ccccc4C(F)(F)F)c(C(C)=O)s3)c2cc1OC [GSK1030059A] |  |  |  |  |  |  | 0 | 0 | 0 | 0 | 0 | 
3 | Cc1cc(N2CCC(NS(=O)(=O)c3ccc(F)cc3)CC2)nc(Nc2cccc(C#N)c2)n1 [GSK1653537A] |  |  |  |  |  |  | 0 | 0 | 0 | 0 | 0 | 
4 | CCNCC(Cc1ccccc1)NC(=O)c1cc(Br)c(-c2ccnc3[nH]ccc23)s1 (stereo not shown) [GSK1383280A] |  |  |  |  |  |  | 0 | 0 | 0 | 0 | 0 | 
5 | CCNC(=O)O[C@H]1CN[C@H](C#Cc2cc3ncnc(Nc4ccc(OCc5cccc(F)c5)c(Cl)c4)c3s2)C1 [GSK192082A] |  |  |  |  |  |  | 0 | 0 | 0 | 0 | 0 | 
6 | O=C(O[C@H]1CN[C@H](C#Cc2cc3ncnc(Nc4ccc5c(cnn5Cc5ccccc5)c4)c3s2)C1)N1CCOCC1 [GSK200398A_KCGS] |  |  |  |  |  |  | 0 | 0 | 0 | 0 | 0 | 
7 | C=CC(=O)Nc1cc(-n2c(=O)ccc3cnc4ccc(-c5ccc(NS(C)(=O)=O)cc5)cc4c32)ccc1C [BMX-IN-1] |  |  |  |  |  |  | 0 | 0 | 0 | 0 | 0 | 
8 | O=c1cc(N2CCOCC2)nc2n(Cc3ccccc3F)ccn12 [GSK2297428A] |  |  |  |  |  |  | 0 | 0 | 0 | 0 | 0 | 
9 | CN(C)C(=O)/C(C#N)=C/c1ccc(-c2nc3cnc4[nH]ccc4c3n2C2CCCCC2)o1 [FM-381] |  |  |  |  |  |  | 0 | 0 | 0 | 0 | 0 | > 1
10 | CNc1cc(-c2ccc3c(N)n[nH]c3c2)nc(N)n1 [GSK2224810A] |  |  |  |  |  |  | 0 | 0 | 0.04187 | 0 | 0 | 
11 | COc1cc2nc(-c3cc(F)ccc3O)nc(N[C@@H]3CNC[C@H]3C(C)(C)O)c2cc1OC [CCT241533] |  |  |  |  |  |  | 0 | 0 | 0 | 0 | 0 | 
12 | O=c1cc(N2CCOCC2)nc2n(Cc3cccc(Cl)c3)ccn12 [GSK2296823A] |  |  |  |  |  |  | 0 | 0 | 0 | 0 | 0 | 
13 | COc1ccc(Nc2nccc(-c3ccc(NC(=O)c4cc5cc(F)ccc5[nH]4)cc3)n2)cc1 [GSK1229496A] |  |  |  |  |  |  | 0 | 0 | 0 | 0 | 0 | > 1
14 | CSc1nn2c(=O)cc(N3CCOCC3)nc2n1Cc1cccc(Cl)c1Cl [GSK2347225A] |  |  |  |  |  |  | 0 | 0 | 0 | 0 | 0 | 
15 | Cc1ccc(-n2nc(C(C)(C)C)cc2NC(=O)Nc2ccc(OCCN3CCOCC3)cc2)cc1 [BIRB0876BS] |  |  |  |  |  |  | 0 | 0 | 0 | 0 | 0 | 

Now from value to molecule:

Row | IC50 (PKN3; [1]) [µM] | IC50 (PKN3; [2]) [µM] | IC50 (PKN3; [3]) [µM] | IC50 (PKN3; [4]) [µM] | IC50 (PKN3; [5]) [µM] | IC50 (PKN3; [6]) [µM] | CATDS (ACOX1) | CATDS (ACAD11) | CATDS (AAK1) | CATDS (ABL1) | CATDS (ABL2) | potency estimated from few doses (AAK1) [µM] | Compound
16 | 26.7 | 0.922 | 0.257 |  |  |  |  |  |  |  |  |  | Cc1cccc2c(-c3ccncn3)c(-c3ccc(F)cc3)nn12 [GW515532X]
17 | 7.97 | 11.2 | 2.82 | 12.9 | 4.91 |  |  |  |  |  |  |  | CCn1c(-c2nonc2N)nc2c(C#CCN)ncc(OCCCN)c21 [GSK561866B]
18 | 0.0978 | 0.0312 | 0.0223 | 0.31 | 0.0281 |  |  |  |  |  |  |  | CCn1c(-c2nonc2N)nc2c(C#CC(C)(C)O)nc(OC[C@@H](N)c3ccccc3)cc21 [GSK938890A]
19 | 1.58 | 0.472 | 0.0871 | 4.19 |  | 4.1 |  |  |  |  |  |  | Cc1cccc(-c2nc(Nc3ccncc3)c3sccc3n2)n1 [GW869641X]
20 | 2.36 | 0.951 | 0.295 | 8.03 | 0.164 | 8 |  |  |  |  |  |  | Fc1ccc(-c2c(-c3ccncc3)[nH]c3cccnc23)cc1 [RO1153853-000]
21 |  |  |  |  |  |  | 0 | 0 | 0 | 0 | 0 |  | NCC1CCC(CNc2nc(NCc3ccccc3OC(F)(F)F)ncc2[N+](=O)[O-])CC1 (stereo not shown) [BIRZ0518XX]
22 |  |  |  |  |  |  | 0 | 0 | 0 | 0 | 0 |  | Cc1ccccc1Cn1ccn2c(=O)cc(N3CCOCC3)nc12 [GSK2269905A]
23 |  |  |  |  |  |  | 0 | 0 | 0 | 0 | 0 |  | COc1ccc(Nc2nccc(N3CCC(NC(=O)c4cccc(C#N)c4)C3)n2)cc1 (stereo not shown) [GSK1379730A]
24 |  |  |  |  |  |  | 0 | 0 | 0 | 0 | 0 |  | Cc1ccc(C)c(NC(=O)NC2CCN(c3ccnc(Nc4ccc(F)cc4)n3)C2)c1 (stereo not shown) [GSK1379720A]
25 |  |  |  |  |  |  | 0 | 0 | 0 | 0 | 0 |  | Fc1ccc(-c2nc3n(c2-c2ccncc2)CCS3)cc1 [GI98581X]
26 |  |  |  |  |  |  | 0 | 0 | 0 | 0 | 0 |  | CCC(NN(C)C)=C1C(=O)Nc2ccc(C(C)=O)cc21 [BI00036838]
27 |  |  |  |  |  |  | 0 | 0 | 0 | 0 | 0 |  | CSc1nn2c(=O)cc(N3CCOCC3)nc2n1Cc1cccc(C(F)(F)F)c1C [GSK2363608B]
28 |  |  |  |  |  |  | 0 | 0 | 0 | 0 | 0 |  | Cc1c(Cn2c(C)nn3c(=O)cc(N4CCOC(C)C4)nc23)cccc1C(F)(F)F (stereo not shown) [GSK2344444A]
29 |  |  |  |  |  |  | 0 | 0 | 0 | 0 | 0 |  | Cc1cn(-c2cc(NC(=O)c3ccc4c(c3)CN(c3cncnc3)C[C@@H]4C)cc(C(F)(F)F)c2)cn1 [Compound D2202-1]
30 |  |  |  |  |  |  | 0 | 0 | 0 | 0 | 0 |  | COc1cc(N2CCN(C(C)C)CC2)ccc1Nc1nc(Nc2ccc(F)cc2C(=O)NC[C@@H](O)CO)c2cc[nH]c2n1 [GSK1392956A]

From paper PMC11062922 (Nature Chemical Biology, 2023)
